Our source for the IC50 values is patent US20260297085A1, “1 H-PYRROLO[2,3-B]PYRIDIN-4-YL]-2-OXOPYRROLIDINE-3-CARBONITRILE DERIVATIVES AS TYROSINE KINASE 2 (TYK2) INHIBITORS FOR THE TREATMENT OF INFLAMMATORY DISEASES” (BIOGEN MA INC., priority 2023, published 2026).

Conditions in all cases: JH1 kinase domain, ADP-Glo
In experiment [1] the target is T1, human JAK1 kinase domain (JH1) (Homo sapiens, UniProt P23458).
T1 construct: recombinantly generated catalytic kinase (also known as JH1) domain of human JAK1, JAK2, JAK3 and TYK2
Nature of the experiment: JH1 biochemical assay for JAK1 (ADP-Glo kinase assay, recombinant JH1 catalytic domain, JAK3-342 peptide, 35 μM ATP). As for the experimental part:
(§1) Compounds of the disclosure were assessed for their ability to inhibit TYK2, JAK1, JAK2, and JAK3 activity. The inhibitory properties of the compounds of the disclosure described herein can be evidenced by testing in any one of the following protocols.
(§2) The kinase activity of recombinantly generated catalytic kinase (also known as JH1) domain of human JAK1, JAK2, JAK3 and TYK2 were evaluated in a plate-based assay using the ADP-Glo™ Kinase Assay platform. Specifically, 4 nM of recombinant JAK1 kinase domain is used to phosphorylate 50 μM of a JAK3-342 (sequence ALVDGYFRLTT) peptide in the presence of 35 μM ATP. Catalytic activities of recombinant JAK2, JAK3 and TYK2 kinase domain (0.2, 0.3 and 2 nM, respectively) are evaluated by the phosphorylation status of the JAK3-974 (50 μM; sequence LPLDKDYYVVR) peptide with the addition of ATP (15, 4 and 10 μM, respectively). The reactions proceed for 100 minutes and the catalytic activity is quantified by first depleting the unused ATP, converting the hydrolyzed ADP into ATP to generate luminescence in a luciferase reaction; which is the basis of the ADP-Glo platform. Compounds are tested at either 10 μM or 1 μM top concentration, 11 points of 3-fold dilution. The data is normalized and the percent activity versus log concentration of compound is fitted with a 4-parameter logistic model to generate a curve and an IC50 value.

Experiment [2] has as its target T2, human JAK3 kinase domain (JH1) (Homo sapiens, UniProt P52333).
T2 construct: recombinantly generated catalytic kinase (also known as JH1) domain of human JAK1, JAK2, JAK3 and TYK2
Nature of the experiment: JH1 biochemical assay for JAK3 (ADP-Glo kinase assay, recombinant JH1 catalytic domain, JAK3-974 peptide, 4 μM ATP). As for the experimental part: as §1, §2
In general terms: ADP-Glo turns the ADP formed in a reaction into a luminescent signal.

Experiment [3] addresses T3, human JAK2 kinase domain (JH1) (Homo sapiens, UniProt O60674).
T3 construct: recombinantly generated catalytic kinase (also known as JH1) domain of human JAK1, JAK2, JAK3 and TYK2
Nature of the experiment: JH1 biochemical assay for JAK2 (ADP-Glo kinase assay, recombinant JH1 catalytic domain, JAK3-974 peptide, 15 μM ATP). As for the experimental part:
as §1, §2

For experiment [4], the target named is T4, human TYK2 kinase domain (JH1) (Homo sapiens, UniProt P29597).
T4 construct: recombinantly generated catalytic kinase (also known as JH1) domain of human JAK1, JAK2, JAK3 and TYK2
T4 sequence (P29597 897-1176 limits assumed): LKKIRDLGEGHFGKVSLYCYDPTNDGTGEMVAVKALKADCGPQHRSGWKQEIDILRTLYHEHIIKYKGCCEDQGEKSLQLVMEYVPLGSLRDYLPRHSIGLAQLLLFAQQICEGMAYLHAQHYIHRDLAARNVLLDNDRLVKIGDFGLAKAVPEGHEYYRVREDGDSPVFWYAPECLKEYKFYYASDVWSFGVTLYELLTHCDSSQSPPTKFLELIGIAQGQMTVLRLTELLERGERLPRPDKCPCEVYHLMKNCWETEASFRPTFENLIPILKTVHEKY
Nature of the experiment: JH1 biochemical assay for TYK2 (ADP-Glo kinase assay, recombinant JH1 catalytic domain, JAK3-974 peptide, 10 μM ATP). The procedure: as §1, §2

A value given as a limit tells only on which side of the number the result lay.

T1 sequence (P23458 875-1153 limits assumed): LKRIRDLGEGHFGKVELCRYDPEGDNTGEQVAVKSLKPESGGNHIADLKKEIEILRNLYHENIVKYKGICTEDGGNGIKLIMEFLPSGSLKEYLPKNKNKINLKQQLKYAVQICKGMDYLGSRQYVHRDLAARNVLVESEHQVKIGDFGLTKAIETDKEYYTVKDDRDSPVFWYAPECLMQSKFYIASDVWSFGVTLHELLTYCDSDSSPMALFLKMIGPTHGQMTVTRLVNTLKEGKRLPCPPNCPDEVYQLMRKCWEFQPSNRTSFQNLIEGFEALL
T3 sequence (O60674 849-1124 limits assumed): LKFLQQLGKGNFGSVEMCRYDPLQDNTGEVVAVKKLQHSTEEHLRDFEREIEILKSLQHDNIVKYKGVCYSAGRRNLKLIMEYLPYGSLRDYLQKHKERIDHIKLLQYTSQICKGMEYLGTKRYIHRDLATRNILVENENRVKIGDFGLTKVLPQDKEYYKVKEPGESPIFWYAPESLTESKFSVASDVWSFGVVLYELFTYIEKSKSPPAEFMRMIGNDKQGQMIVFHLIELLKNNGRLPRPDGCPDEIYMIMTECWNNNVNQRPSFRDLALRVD
T2 sequence (P52333 822-1111 limits assumed): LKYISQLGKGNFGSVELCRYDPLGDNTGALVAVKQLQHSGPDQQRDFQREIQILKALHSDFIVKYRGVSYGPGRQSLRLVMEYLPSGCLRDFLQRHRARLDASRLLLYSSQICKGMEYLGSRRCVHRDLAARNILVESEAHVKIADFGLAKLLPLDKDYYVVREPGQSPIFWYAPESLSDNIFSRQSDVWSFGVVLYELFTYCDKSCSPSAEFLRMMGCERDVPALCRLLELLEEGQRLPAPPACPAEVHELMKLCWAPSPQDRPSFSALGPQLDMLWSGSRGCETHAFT

By IC50 is commonly meant the point on the concentration scale where inhibition reaches its midpoint. As to `CC[C@H]1CN(c2ccnn3cc(-c4cnn(C)c4)cc23)C(=O)[C@]1(C#N)C1CC1` [Example 24, (3R,4R)-3-cyclopropyl-4-ethyl-1-(6-(1-methyl-1H-pyrazol-4-yl)pyrrolo[1,2-b]pyridazin-4-yl)-2-oxopyrrolidine-3-carbonitrile], the half-inhibitory concentration (IC50) in experiment [1] was 5 to 10 µM; in experiment [2], over 10 µM; in experiment [3], 5 to 10 µM; in experiment [4] it was over 0.1 µM.

As to `CC[C@H]1CN(c2ccnn3cc(-c4cnn(C)c4)cc23)C(=O)[C@@]1(C#N)C1CC1` [Example 25, (3S,4R)-3-cyclopropyl-4-ethyl-1-(6-(1-methyl-1H-pyrazol-4-yl)pyrrolo[1,2-b]pyridazin-4-yl)-2-oxopyrrolidine-3-carbonitrile], the IC50 in experiment [1] was over 10 µM; in experiment [2], over 10 µM; in experiment [3] it was over 10 µM; in experiment [4] it was over 0.1 µM.

With `CC[C@@H]1CN(c2ccnn3cc(-c4cnn(C)c4)cc23)C(=O)[C@@]1(C#N)C1CC1` [Example 26, (3S,4S)-3-cyclopropyl-4-ethyl-1-(6-(1-methyl-1H-pyrazol-4-yl)pyrrolo[1,2-b]pyridazin-4-yl)-2-oxopyrrolidine-3-carbonitrile], the IC50 in experiment [1] was over 10 µM; in experiment [2] it was over 10 µM; in experiment [3], over 10 µM; in experiment [4], over 0.1 µM.

Regarding `Cn1cc(-c2cc3c(N4CC[C@@](CC#N)(C5CC5)C4=O)ccnn3c2)cn1` [Example 27, (R)-2-(3-cyclopropyl-1-(6-(1-methyl-1H-pyrazol-4-yl)pyrrolo[1,2-b]pyridazin-4-yl)-2-oxopyrrolidin-3-yl)acetonitrile], the IC50 in experiment [1] was 1 to 5 µM; in experiment [2] it was 1 to 5 µM; in experiment [3], 1 to 5 µM; in experiment [4] it was over 0.1 µM.

Regarding `C[C@H]1CN(c2ccnn3cc(-c4cnn(C)c4)cc23)C(=O)[C@@]1(C#N)C1CC1` [Example 29, (3S,4R)-3-cyclopropyl-4-methyl-1-(6-(1-methyl-1H-pyrazol-4-yl)pyrrolo[1,2-b]pyridazin-4-yl)-2-oxopyrrolidine-3-carbonitrile], the IC50 in experiment [1] is over 10 µM; in experiment [2], over 10 µM; in experiment [3], over 10 µM; in experiment [4], over 0.1 µM.

Regarding `C[C@H]1C[C@](C#N)(C2CC2)C(=O)N1c1ccnn2cc(-c3cnn(C)c3)cc12` [Example 30, (3R,5S)-3-cyclopropyl-5-methyl-1-(6-(1-methyl-1H-pyrazol-4-yl)pyrrolo[1,2-b]pyridazin-4-yl)-2-oxopyrrolidine-3-carbonitrile], the IC50 in experiment [1] was over 10 µM; in experiment [2] it was over 10 µM; in experiment [3], over 10 µM; in experiment [4], over 0.1 µM.

As to `C[C@H]1C[C@@](C#N)(C2CC2)C(=O)N1c1ccnn2cc(-c3cnn(C)c3)cc12` [Example 31, (3S,5S)-3-cyclopropyl-5-methyl-1-(6-(1-methyl-1H-pyrazol-4-yl)pyrrolo[1,2-b]pyridazin-4-yl)-2-oxopyrrolidine-3-carbonitrile], the IC50 was over 10 µM in experiment [1], over 10 µM in experiment [2], over 10 µM in experiment [3] and over 0.1 µM in experiment [4].

Consider `CC[C@H]1C[C@](C#N)(C2CC2)C(=O)N1c1ccnn2cc(-c3cnn(C)c3)cc12` [Example 32, (3R,5S)-3-cyclopropyl-5-ethyl-1-(6-(1-methyl-1H-pyrazol-4-yl)pyrrolo[1,2-b]pyridazin-4-yl)-2-oxopyrrolidine-3-carbonitrile], for which the IC50 in experiment [1] is over 10 µM; in experiment [2], over 10 µM; in experiment [3], over 10 µM; in experiment [4], over 0.1 µM.

On to `CC[C@@H]1C[C@](C#N)(C2CC2)C(=O)N1c1ccnn2cc(-c3cnn(C)c3)cc12` [Example 33, (3R,5R)-3-cyclopropyl-5-ethyl-1-(6-(1-methyl-1H-pyrazol-4-yl)pyrrolo[1,2-b]pyridazin-4-yl)-2-oxopyrrolidine-3-carbonitrile], for which the IC50 is 5 to 10 µM in experiment [1], 5 to 10 µM in experiment [2], 1 to 5 µM in experiment [3] and over 0.1 µM in experiment [4].
